{"source": "patent US10137181B2", "about": "“Isolated donor MHC-derived peptide and uses thereof” (INSERM (INSTITUT NATIONAL DE LA SANTÉ ET DE LA RECHERCHE …, priority 2014, dated 2018)", "key": {"CD8^+CD40Ig Tregs [1]": {"tested_on": "CD8^+CD40Ig Tregs", "assay": "MLR coculture assay: CD8+CD40Ig Treg activation (CD25 expression) by donor MHC-derived peptides in the presence of syngeneic pDCs", "type": "cell-based, rat", "conditions": "6 days culture, CpG-matured syngeneic pDCs; for activation of CD8+CD40Ig Tregs (CD25 upregulation), in words: individual peptide, derivatives compared with Bu31", "excerpt": "FIG. 1: Analysis of CD8+CD45RClow Tregs activation in response to donor-derived peptide stimulation. (A) CD8+ Tregs were cocultured for 6 days with syngeneic CpG-matured pDCs in the presence of peptides. For each experiment, the percentage of CD25 positive Tregs after 6 days of coculture with pDCs only, was given the value 1. Mean value 1 is equal to 32.85±1.98%. Results are expressed as the ratio±SEM between the percentage of CD25 positive cells after peptide stimulation and percentage of CD25 positive cells in the control condition without peptide. *p<0.05, **p<0.01 and ***p<0.001 versus control condition (value 1.0). n=4 to 18 for each peptide. (B) Analysis of Treg activation in response to Bu31 shorter peptide derivatives. On the left, 15 Bu31-derivatives are detailed and classified by aa sequence length, from 9 aa to 15 aa. The box highlights mismatched aa between the donor and recipient. On the right, Treg activation in response to Bu31-derivatives was analyzed by CD25 expression. CD8+ Tregs were cocultured for 6 days with syngeneic CpG-matured pDCs in the presence of each peptide. Bars represent the ratio between the percentage of CD25 positive cells after peptide stimulation and percentage of CD25 positive cells in the control condition without peptide. *p<0.05, **p<0.01 versus Bu31 condition. n=3 to 14 for each peptide.\n(§1) Mixed lymphocyte reaction: For MLR coculture assays, pDCs from LEW.1A naive rats (1.25×10^4 cells), syngeneic CD8^+CD40Ig Tregs (5×10^4 cells) and 120 μg/ml of allogeneic peptides were plated in triplicate in 200 μl of complete RPMI-1640 medium in round-bottom 96 wells plates for 6 days at 37° C., 5% CO2. pDCs were matured with 0.5 μM of CpG ODN 1826.\n(§2) Proliferation of CFSE-labeled naive CD4^+CD25^− T cells and phenotype of CD8^+CD45RC^low Tregs were analyzed by flow cytometry on a FACSCanto II cytometer (BD Biosciences) after gating on TCR^+CD4^+ cells or TCR^+CD8^+ cells among live cells (DAPI negative).\n(§3) Extracellular and intracellular staining: For extracellular staining, cells were stained with the following mAbs: anti-TCRαβ (R73, Alexa Fluor 647-conjugated), anti-CD8α (OX8, PE-Cy7-conjugated, Ebiosciences), anti-CD4 (W3.25, PE-Cy7-conjugated), anti-CD45RC (OX22, FITC-conjugated), anti-CD28 (JJ319, biotin-labeled), anti-CD71 (OX26, biotin-labeled), anti-CD25 (OX39, biotin-labeled) and anti-MHC-II (OX6, biotin-labeled).\nIn the rat MHC-mismatched heart allograft model, donors (RT1^u) and recipients (RT1^a) are mismatched for all MHC molecules. We therefore aligned donor and recipient MHC I and II amino acids (aa) sequences and designed 82 overlapping 16-mer peptides matching the polymorphic domains of donor MHC I and II molecules (4-6). Peptides were first grouped into pools of 6 to 8 peptides (30 μg/ml of each peptide) and tested in an in vitro assay where immature or mature syngeneic recipient plasmacytoic dendritic cells (pDCs) and sorted-CD8^+CD40Ig Tregs from CD40Ig-treated long-term allograft bearing recipients were cocultured for 3 or 6 days. With immature pDCs, we observed no significant activation of CD8^+CD40Ig Tregs at day 3 or day 6 with any of the allogeneic pools of peptides. After stimulation with mature pDCs and pools of allogeneic peptides we observed at day 3 a slight upregulation of CD25 expression of a small population of CD8^+CD40Ig Tregs, and at day 6, a significant up-regulation of CD25 expression following allogeneic stimulation."}, "CD8^+CD40Ig Tregs [2]": {"tested_on": "CD8^+CD40Ig Tregs", "assay": "Cytokine ELISA in Treg/pDC coculture supernatants after peptide stimulation", "type": "cell-based, rat", "conditions": "6 days peptide stimulation with pDCs", "method": "(§4) FIG. 2: CD8+ Tregs phenotype following ex vivo allopeptide stimulation. (A) Tregs and syngeneic CpG-matured pDCs were cultured for 6 days, alone, with a control peptide or with peptide Bu31. Expression of indicated markers was analyzed on CD8+ Tregs in the culture supernatant by ELISA (A) or by flow cytometry (B) after in vitro stimulation. Graphs represent the mean±SEM. *p<0.05, **p<0.01, n=4 to 7.\nas §1\nCytokine assays: IFNγ, IL-10 were measured in coculture supernatants using ELISA from BD Biosciences OptEIA, IL-12 and TGFβ using ELISA from Invitrogen and R&D System respectively."}, "CD8^+CD40Ig Tregs [3]": {"tested_on": "CD8^+CD40Ig Tregs", "assay": "Flow cytometry phenotype of CD8+ Tregs after ex vivo peptide stimulation", "type": "cell-based, rat", "conditions": "6 days of peptide stimulation", "method": "as §4, §1, §3\nFor intracellular staining, cells were then stained for Foxp3 (biotin-labeled, Ebiosciences) using BD cytofix/cytoperm kit (BD Biosciences) according to the manufacturer's instructions.\nAll biotinylated mAbs were visualized using Streptavidin-PerCP.Cy5.5 (BD Biosciences). A FACSCanto II cytofluorimeter (BD Biosciences) was used to measure fluorescence, and data were analyzed using FlowJo software (Tree Star, Inc. USA, version 7.6.5). Cells were first gated by their morphology and dead cells excluded by selecting DAPI negative viable cells."}, "CD4^+CD25^− T cells [4]": {"tested_on": "CD4^+CD25^− T cells", "assay": "MLR suppressive assay with peptide-stimulated CD8+CD40Ig Tregs", "type": "cell-based, rat", "conditions": "day 6, donor LEW.1W pDCs, 1:1 effector:suppressor, vs Tregs stimulated by a non-activating peptide", "method": "FIG. 3: Bu31-activated Tregs maintained efficient suppressive activity. Fresh CD8+CD40Ig Tregs and syngeneic CpG-matured pDCs were cocultured for 6 days with either Bu31 or a control peptide. At day 6, Tregs were isolated by cell sorting (TCR+) and their regulatory function was analyzed by measuring their capacity to suppress MLR assay. The relative proportion of naive CFSE-labeled dividing LEW.1A CD4+CD25− T cells after stimulation with donor LEW.1W pDCs was analyzed at day 6 of culture, in the absence or presence of 6 days peptide-stimulated CD8+ Tregs at a 1:1 ratio effector:suppressor. Graphs represent the mean±SEM. *p<0.05 (left). Plots are representative of four independent experiments (right). […]\nas §2\nHere, we investigated whether Bu31-stimulated CD8^+CD40Ig Tregs could efficiently suppress effector T cell proliferation after 6 days coculture and thus maintained their suppressor activity, compared to CD8^+CD40Ig Tregs stimulated with a non-activating control peptide. […] To evaluate this, we measured the relative proportion of dividing CD4^+CD25^− T cells at day 6 of coculture (FIG. 3)."}, "cardiac grafts": {"tested_on": "cardiac grafts", "assay": "Morphometric analysis of cardiac grafts (chronic rejection)", "type": "in vivo, rat", "conditions": "long-term surviving peptide-treated recipients", "method": "Morphometric analysis of cardiac grafts: The upper third of the graft was fixed in paraformaldehyde and embedded in paraffin. Five μm coronal sections were stained with hematoxylin-eosine-safron. Tissues were analyzed by a pathologist blinded to the groups and chronic rejection was evaluated as previously described (16)."}, "donor splenocytes": {"tested_on": "donor splenocytes", "assay": "Donor specific alloantibody detection", "type": "in vivo, rat", "conditions": "long-term surviving treated recipients vs untreated rats, sera >120 days after transplantation", "method": "FIG. 6: Anti-donor immune responses. Allo antibody production was evaluated in naive (n=3), grafted untreated (n=3) and long-term […] (n=4) animals. Sera were collected <30 days after rejection or >120 days after transplantation. Sera were incubated with donor splenocytes and analyzed by flow cytometry for IgG, IgG1 or IgG2b Abs production. Graph represents MFI±SEM.\nDonor specific alloantibody detection: Alloantibodies were analyzed by cytofluorimetry as described elsewhere (14). Briefly, after digestion by collagenase D and red blood cell lysis, allogeneic spleen cells were incubated with diluted (⅛) heat-inactivated serum, and then with FITC-conjugated goat anti-rat IgG antibodies (H+L chain specific) (Jackson Laboratories), a mouse anti-rat IgG1 MAb (MCA 194, Serotec) or IgG2b (MCA 195, Serotec). […] Cells were analyzed using a FACS Canto II cytofluorimeter (BD Biosciences, Mountain View, Calif.) and the results were expressed as mean channel fluorescence for each serum."}, "CD4^+CD25^− T cells [5]": {"tested_on": "CD4^+CD25^− T cells", "assay": "In vitro suppressive potential of CD8+CD45RClow Tregs from peptide-treated recipients", "type": "cell-based, rat", "conditions": "6 days culture, donor LEW.1W pDCs, different effector:suppressor ratios", "method": "FIG. 7. In vitro suppressive potential of CD8^+CD45RC^low Tregs from Bu31-treated recipients. The proliferation of naive CFSE-labeled LEW.1A CD4^+CD25^− T cells stimulated with donor LEW.1W pDCs was analyzed after 6 days of culture, in the presence of LEW.1A CD8^+CD45RC^low Tregs from naive or Bu31-treated recipients at different effector:suppressor ratio. The CD4^+CD25^− T cell proliferation alone was ˜80% and was given the value 100 in each experiment. Graphs represent the mean±SEM of relative CD4^+CD25^− T cell proliferation. *p<0.05.\nFor MLR suppressive assays, sorted CFSE-labeled CD4^+CD25^− T cells from LEW.1A origin (5×10^4 cells) and allogeneic pDCs isolated from donor LEW.1W animals (1.25×10^4 cells) were plated in triplicate for 6 days in a final volume of 200 μl of completed RPMI-1640 medium in round-bottom 96 wells plates with FACS-sorted freshly purified naive CD8^+CD45RC^low Treg cells or peptide-expanded CD8^+CD40Ig Treg cells (5×10^4 cells).\nas §2"}, "[6]": {"tested_on": "heart allograft, LEW.1W donors into LEW.1A recipients", "assay": "Cardiac allograft survival after in vivo peptide infusion", "experimental": "Recipients were either untreated (n=9) or treated with continuous infusion of peptide by i.p mini osmotic pumps (ALZET), delivering from day-7 and for 28 days, either 20.83 μg/hour alone (Bu31 0.5 mg/day: n=6) or 40.66 μg/hour in the LEW.1W/LEW.1A (Du51 1 mg/day: n=5) or combined with a depleting anti-CD8 mAb (OX8) (n=2) or BN/LEW.1A (Du51 1 mg/day (BN/1A): n=4) strains combination.\nAnimals and cardiac transplantation models: Allotransplantations of heart were performed between whole MHC incompatible LEW.1W (RT1.A^u as donors) and LEW.1A (RT1.A^a as recipients) male rats as previously described (1).\nPeptides treatment in vivo: 16-mer peptides were dissolved in 0.4% DMSO/PBS before injection. […] In the second protocol, mini osmotic pumps (ALZET, Cupertino, Calif., USA) were implanted intraperitoneally (i.p) in recipients and delivered continuously either 20.83 or 41.66 μg/hour of 16-mer peptides for 14 days. A first pump was implanted on day −7 before transplantation and was replaced by a second one at day +7, allowing delivery of 14 or 28 mg of peptide per animal for 28 consecutive days. A depleting anti-CD8α mAb (OX8, IgG1, 3 mg/kg) was injected i.p. twice a week from day −7 until rejection. Allografts were monitored daily by palpation and allograft rejection was defined as complete cessation of palpable heart beat."}}, "data": [{"sequence": "YLRYDSDVGEYRAV (Synthetic 14-mer peptide 31-13)", "values": [{"measurement": "activation of CD8+CD40Ig Tregs (CD25 upregulation), in words", "setting": "CD8^+CD40Ig Tregs [1]", "result": "much stronger and significant CD25 upregulation"}]}, {"sequence": "SDVGEYRAVTELGR (Synthetic 14-mer peptide 31-14)", "values": [{"measurement": "activation of CD8+CD40Ig Tregs (CD25 upregulation), in words", "setting": "CD8^+CD40Ig Tregs [1]", "result": "much stronger and significant CD25 upregulation"}]}, {"sequence": "LRYDSDVGEYRAVTE (Synthetic 15-mer peptide 31-15)", "values": [{"measurement": "activation of CD8+CD40Ig Tregs (CD25 upregulation), in words", "setting": "CD8^+CD40Ig Tregs [1]", "result": "much stronger and significant CD25 upregulation"}]}, {"sequence": "YLRYDSDVGEYRAVTE (Synthetic Subdominant peptide Bu31)", "values": [{"measurement": "upregulation of CD25 expression at the cell surface of CD8+CD40Ig Tregs, ratio of % CD25 positive cells vs. no peptide", "setting": "CD8^+CD40Ig Tregs [1]; individual 16-mer peptide, mean±SEM", "result": "1.67±0.09", "unit": "fold"}, {"measurement": "IFNγ expression in culture supernatant", "setting": "CD8^+CD40Ig Tregs [2]", "result": "significant increased expression"}, {"measurement": "IL-10 expression in culture supernatant", "setting": "CD8^+CD40Ig Tregs [2]", "result": "no modification"}, {"measurement": "IL-12 expression in culture supernatant", "setting": "CD8^+CD40Ig Tregs [2]", "result": "no modification"}, {"measurement": "TGFβ expression in culture supernatant", "setting": "CD8^+CD40Ig Tregs [2]", "result": "no modification"}, {"measurement": "CD28 expression on CD8+ Tregs", "setting": "CD8^+CD40Ig Tregs [3]", "result": "upregulation"}, {"measurement": "CD71 expression on CD8+ Tregs", "setting": "CD8^+CD40Ig Tregs [3]", "result": "upregulation"}, {"measurement": "Foxp3 expression in CD8+ Tregs", "setting": "CD8^+CD40Ig Tregs [3]", "result": "no modification"}, {"measurement": "MHC class II expression on CD8+ Tregs", "setting": "CD8^+CD40Ig Tregs [3]", "result": "upregulation"}, {"measurement": "suppressive activity of peptide-stimulated Tregs: relative proportion of dividing CD4+CD25− effector T cells", "setting": "CD4^+CD25^− T cells [4]", "result": "maintained an efficient suppressive activity"}, {"measurement": "signs of chronic rejection, anatomopathologic analysis of the graft", "setting": "cardiac grafts", "result": "no signs of chronic rejection"}, {"measurement": "IgG1 alloantibodies production", "setting": "donor splenocytes", "result": "total inhibition"}, {"measurement": "IgG2b alloantibodies production", "setting": "donor splenocytes", "result": "total inhibition"}, {"measurement": "total IgG alloantibodies production", "setting": "donor splenocytes", "result": "total inhibition"}, {"measurement": "ex vivo suppressive activity of CD8+CD45RClow Tregs from treated recipients on effector CD4+ T cell proliferation", "setting": "CD4^+CD25^− T cells [5]", "result": "superior suppressive activity"}, {"measurement": "prolongation of allograft survival", "setting": "[6]; 0.5 mg/day i.p. mini-osmotic pumps for 28 days from day -7, monotherapy", "result": "not sufficient to induce prolongation of allograft survival"}, {"measurement": "indefinite allograft survival, share of recipients", "setting": "[6]; 1 mg/day i.p. mini-osmotic pumps for 28 days from day -7, LEW.1W/LEW.1A", "result": 80, "unit": "%"}, {"measurement": "rejection of Brown Norway (BN) third party grafts, time after transplantation", "setting": "[6]; peptide infusion 1 mg/day, BN/LEW.1A combination", "result": 7, "unit": "days"}]}, {"sequence": "YLRYDSDVGEYR (Synthetic 12-mer peptide 31-10)", "values": [{"measurement": "activation of CD8+CD40Ig Tregs (CD25 upregulation), in words", "setting": "CD8^+CD40Ig Tregs [1]", "result": "much stronger and significant CD25 upregulation"}]}]}
